ChEMBL document CHEMBL1127975, “Balanced angiotensin II receptor antagonists. II.1,2 4-aminomethyl- and acylaminomethylimidazoles” (Bioorg Med Chem Lett, 1994)

Tests used:
[1] = molecular target: T1, Type-2 angiotensin II receptor (Homo sapiens, UniProt P50052); experiment: In vitro binding affinity of compound against angiotensin II AT-2 receptor
T1 sequence (P50052 whole entry): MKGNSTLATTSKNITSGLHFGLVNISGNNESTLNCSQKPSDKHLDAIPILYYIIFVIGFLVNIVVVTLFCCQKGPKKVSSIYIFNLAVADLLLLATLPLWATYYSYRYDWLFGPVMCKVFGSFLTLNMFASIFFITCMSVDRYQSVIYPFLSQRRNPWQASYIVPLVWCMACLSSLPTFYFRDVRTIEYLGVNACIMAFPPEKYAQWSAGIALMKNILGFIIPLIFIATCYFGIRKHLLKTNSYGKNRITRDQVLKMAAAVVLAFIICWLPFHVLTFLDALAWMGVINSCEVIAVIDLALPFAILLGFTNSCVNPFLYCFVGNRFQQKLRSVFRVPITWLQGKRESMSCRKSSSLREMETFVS

[2] = molecular target: T2, Type-1 angiotensin II receptor (Homo sapiens, UniProt P30556); experiment: In vitro binding affinity of compound against Angiotensin II receptor, type 1
T2 sequence (P30556 whole entry): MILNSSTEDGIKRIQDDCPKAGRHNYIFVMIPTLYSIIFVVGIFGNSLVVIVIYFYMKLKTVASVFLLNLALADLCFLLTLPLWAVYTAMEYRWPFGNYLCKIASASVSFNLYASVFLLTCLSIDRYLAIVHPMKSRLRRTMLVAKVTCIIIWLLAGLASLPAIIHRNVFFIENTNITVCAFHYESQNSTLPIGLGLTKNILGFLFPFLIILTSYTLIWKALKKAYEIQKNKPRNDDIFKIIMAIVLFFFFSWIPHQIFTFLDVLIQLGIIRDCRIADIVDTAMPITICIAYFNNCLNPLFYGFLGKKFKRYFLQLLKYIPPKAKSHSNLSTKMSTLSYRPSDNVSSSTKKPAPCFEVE

[3] = tested on: Rattus norvegicus; experiment: Compound was tested for its antihypertensive activity after intravenous administration to renal hypertensive rats; type: functional
[4] = tested on: Rattus norvegicus; experiment: Compound was tested for its antihypertensive activity after oral administration to renal hypertensive rats; type: functional

| Structure (SMILES) | IC50 [1] [nM] | IC50 [2] [nM] | ED30 [3] [mg/kg] | ED30 [4] [mg/kg] |
| --- | --- | --- | --- | --- |
| CCCc1nc(CN(Cc2ccccc2)C(=O)OC(C)(C)C)c(C(=O)O)n1Cc1ccc(-c2ccccc2-c2nn[nH]n2)cc1 | 1000 | 9 | – | – |
| CCc1nc(CN2CCN(c3ccccn3)CC2)c(C(=O)O)n1Cc1ccc(-c2ccccc2-c2nnn[nH]2)cc1 | 500 | 20 | – | – |
| CCCc1nc(CN2CCN(c3ccccn3)CC2)c(C(=O)O)n1Cc1ccc(-c2ccccc2S(=O)(=O)NC(=O)C2CC2)cc1 | 600 | 10 | – | – |
| CCCc1nc(CN(CC(=O)O)C(=O)C(c2ccccc2)c2ccccc2)c(C(=O)O)n1Cc1ccc(-c2ccccc2-c2nn[nH]n2)cc1 | 7000 | 100 | – | – |
| CCCCc1nc(Cl)c(CO)n1Cc1ccc(-c2ccccc2-c2nnn[n-]2)cc1.[K+] [LOSARTAN POTASSIUM] | – | – | 0.78 | 0.59 |
| CCCc1nc(CNC(=O)OC(C)(C)C)c(C(=O)O)n1Cc1ccc(-c2ccccc2-c2nn[nH]n2)cc1 | 4000 | 6 | – | – |
| CCCc1nc(CN2CCN(c3ccc(F)cc3)CC2)c(C(=O)O)n1Cc1ccc(-c2ccccc2-c2nn[nH]n2)cc1 | 80 | 3 | – | – |
| CCCCCC(=O)NS(=O)(=O)c1ccccc1-c1ccc(Cn2c(CCC)nc(CN3CCN(c4ccccn4)CC3)c2C(=O)O)cc1 | 20 | 6 | 0.13 | > 10 |
| CCCCc1nc(CN2CCN(c3ccccn3)CC2)c(C(=O)O)n1Cc1ccc(-c2ccccc2-c2nn[nH]n2)cc1 | 700 | 2 | – | – |
| CCCc1nc(CN(Cc2ccccc2)C(=O)OCC(C)C)c(C(=O)O)n1Cc1ccc(-c2ccccc2-c2nn[nH]n2)cc1 | 800 | 20 | – | – |
| CCCc1nc(CN2CCN(c3ccccn3)CC2)c(C(=O)O)n1Cc1ccc(-c2ccccc2-c2nn[nH]n2)cc1F | 200 | 0.9 | – | – |
| CCCc1nc(CN(Cc2ccccc2)C(=O)Cc2ccccc2)c(C(=O)O)n1Cc1ccc(-c2ccccc2-c2nn[nH]n2)cc1 | 400 | 20 | – | – |
| CCCc1nc(CN(Cc2ccccc2)C(=O)Nc2ccccc2)c(C(=O)O)n1Cc1ccc(-c2ccccc2-c2nnn[nH]2)cc1 | 300 | 2 | – | – |
| CCCc1nc(CN2CCN(c3ccccn3)CC2)c(C=O)n1Cc1ccc(-c2ccccc2-c2nn[nH]n2)cc1 | 1000 | 2 | – | – |
| CCCc1nc(CN2CCN(C(=O)C(c3ccccc3)c3ccccc3)CC2)c(C(=O)O)n1Cc1ccc(-c2ccccc2-c2nn[nH]n2)cc1 | 1000 | 10 | – | – |
| CCCc1nc(CN2CCN(c3ccccc3)C[C@H]2C)c(C(=O)O)n1Cc1ccc(-c2ccccc2-c2nnn[nH]2)cc1 | 70 | 2 | – | – |
| CCCc1nc(CN2CCN(c3ncccn3)CC2)c(C(=O)O)n1Cc1ccc(-c2ccccc2-c2nn[nH]n2)cc1 | 80 | 2 | – | – |

| Structure (SMILES) | IC50 [1] [nM] | IC50 [2] [nM] | ED30 [3] [mg/kg] | ED30 [4] [mg/kg] |
| --- | --- | --- | --- | --- |
| CCCc1nc(CNC(=O)C(c2ccccc2)c2ccccc2)c(C(=O)O)n1Cc1ccc(-c2ccccc2-c2nn[nH]n2)cc1 | 600 | 10 | – | – |
| CCCc1nc(CN2CCN(C(=O)C3CC3)CC2)c(C(=O)O)n1Cc1ccc(-c2ccccc2-c2nnn[nH]2)cc1 | 6000 | 10 | – | – |
| CCCc1nc(CN2CCN(c3ccccc3OC)CC2)c(C(=O)O)n1Cc1ccc(-c2ccccc2-c2nnn[nH]2)cc1 | 3000 | 2 | – | – |
| CCCCOC(=O)NS(=O)(=O)c1ccccc1-c1ccc(Cn2c(CCC)nc(CN3CCN(c4ccccn4)CC3)c2C(=O)O)cc1 | 90 | 6 | – | – |
| CCCc1nc(CN(Cc2ccccc2)C(=O)c2ccccc2)c(C(=O)O)n1Cc1ccc(-c2ccccc2S(=O)(=O)NC(=O)OCC(C)C)cc1 | 100 | 8 | – | – |
| CCCc1nc(CN2CCN(c3ccccn3)CC2)c(C(=O)O)n1Cc1ccc(-c2ccccc2S(=O)(=O)NC(=O)c2ccccc2)cc1 | 500 | 6 | – | – |
| CCCCCN(CCCCC)Cc1nc(CCC)n(Cc2ccc(-c3ccccc3-c3nnn[nH]3)cc2)c1C(=O)O | 200 | 2 | – | – |
| CCCc1nc(CN2CCN(c3ccccn3)CC2)c(C(=O)O)n1Cc1ccc(-c2ccccc2-c2nn[nH]n2)cc1 | 60 | 4.2 | 0.003 | > 3 |
| CCCc1nc(CN2CCN(c3ccccc3)CC2)c(C(=O)O)n1Cc1ccc(-c2ccccc2-c2nnn[nH]2)cc1 | 50 | 5 | 0.004 | > 3 |
| CCCc1nc(CN2CCN(c3ccccn3)CC2)c(CO)n1Cc1ccc(-c2ccccc2-c2nn[nH]n2)cc1 | > 10000 | 10 | – | – |
| CCCc1nc(CN2CCN(c3ccccc3Cl)CC2)c(C(=O)O)n1Cc1ccc(-c2ccccc2-c2nnn[nH]2)cc1 | 600 | 2 | – | – |
| CCCCN(Cc1ccccc1)Cc1nc(CCC)n(Cc2ccc(-c3ccccc3-c3nnn[nH]3)cc2)c1C(=O)O | 90 | 3 | 0.04 | 3 |
| CCCc1nc(CN2CCN(c3ccccc3)C[C@H]2Cc2ccccc2)c(C(=O)O)n1Cc1ccc(-c2ccccc2-c2nn[nH]n2)cc1 | 1000 | 10 | – | – |
| CCCCN(Cc1nc(CCC)n(Cc2ccc(-c3ccccc3S(=O)(=O)NC(=O)CCC)cc2)c1C(=O)O)C(=O)CCC | 90 | 2 | 0.18 | 1.65 |
| CCCc1nc(CN2CCC(c3ccccc3)CC2)c(C(=O)O)n1Cc1ccc(-c2ccccc2-c2nn[nH]n2)cc1 | 400 | 2 | – | – |
| CCCc1nc(C(=O)N2CCN(c3ccccn3)CC2)c(C(=O)O)n1Cc1ccc(-c2ccccc2-c2nnn[nH]2)cc1 | 700 | 2 | 0.018 | ~3 |
| CCCc1nc(CN2CCN(C(=O)c3ccccc3)CC2)c(C(=O)O)n1Cc1ccc(-c2ccccc2-c2nnn[nH]2)cc1 | > 10000 | 5 | – | – |
